Test results from patent US5853748A, “Pharmaceutical compositions” (priority 1994, dated 1998).
Where two headings read alike, the source gives them in different places.

What was measured:
[1] = for pH: water
From the text: (§1) The amount of agent necessary to adjust the pH to within the range contemplated is difficult to determine directly because the intestinal pH can vary between 5 to 7, and its aqueous content can vary, as can its intrinsic buffering capacity, which acts to maintain a low pH. Consequently considerations aimed at determining the appropriate quantity of agent controlling pH need to take into account a "worst-case" scenario. An indication may be obtained by observing the pH achieved upon adding a potential pH-adjusting agent to a 50 mM solution of MES (morpholino ethane sulphonic acid) adjusted to pH 6.0.
A 0.1M solution of sodium bicarbonate in distilled water was prepared (buffer solution). Similar 0.1M solutions of sodium acetate, sodium borate and sodium carbonate in distilled water were also prepared. These are also referred to in the examples as buffers.

[2] = for pH: MES
From the text: as §1

Caco-2 cells [3] = experiment: in vitro
Description: (§2) A neutral red stock solution was prepared at concentration of 0.5 mg/ml in DMEM (Dulbecco's Modified Eagle Medium) (pH 4.5) which was then diluted 1:10 with TCM (Tissue Culture Medium) or Hanks Balanced Salt Solution (HBSS) before use.
(§3) Test solutions were prepared containing various concentrations of a bile salt in either HBSS or in one of the 0.1M buffer solution. The following bile salts were tested:
(§4) Test plates were set up by aliquotting 200 μl of a Caco-2 cell suspension containing 1×10^5 cells/ml into each well of a 96-well microtitre plate. The outermost wells were filled with 200 μl saline alone, to counteract the effects of evaporation. The cells were incubated in high glucose Dulbecco's modified eagles medium (DMEM) tissue culture medium (TCM) at […], 5% CO2 in air, for 8 days, with feeding where necessary. The cells were then used for performance of either an initial insult or a recovery study.
(§5) B. Recovery from Toxic Insult
(§6) Neutral red stain is actively taken up by viable cells and non-viable cells will not stain. Cells with increased cell membrane permeability will have a reduced stain content. […] A 2-hour exposure period is used together with a 3-hour recovery period in optimal growth material during which stain is taken up. The following protocol was followed:
(§7) TCM was removed from each well and replaced with 150 μl of the appropriate buffer.
(§8) Buffer was removed from wells in column 2 and replaced with 150 μl of test solutions at the highest concentration.
(§9) 150 μof test solutions was added to each of wells in column 3, mixed gently by aspirating repeatedly, and 150 μl transferred to wells in column 4. This process was repeated down the plate to obtain two-fold serial dilutions of test material along each row. One row on each plate was allocated to HBSS as a control, and one row for a buffer control if necessary. The cells were incubated for 2 hours at 37° C. in CO2.
(§10) The supernatant liquid was then removed from cell monolayers in each well and replaced with 200 μl of stain.
(§11) The plates were incubated for 3 hours at 37° C., 5% CO2. […]

Caco-2 cells [4] = experiment: in vitro; remark: listed apart in the source
Description: as §3
(§12) A MTT stock solution was prepared at a concentration of 5 mg/ml in distilled water, which was then diluted 1:10 with TCM before use.
(§13) Test plates were set up by aliquotting 200 μl of a Caco-2 cell suspension containing 1×10^5 cells/ml into wells of a 96-well microtitre plate. The outermost wells on each plate were left blank, and filled with 200 μl saline, to counteract the effects of evaporation. The cells were is incubated in high glucose DMEM tissue culture medium (TCM) at 37° C., 5% CO2 in air, for 8 days, with feeding when necessary.
(§14) MTT is a tetrazolium salt which is converted by mitochondrial dehydrogenases in viable cells to form an insoluble purple crystal. Dead cells would not effect this conversion. Crystal formation can be quantified colorimetrically and used to asses mitochondrial activity and therefore cell viability. The preparation of MTT stock solution, test solutions and buffer solution is described above.
(§15) In this procedure, cells are first incubated with test materials and then incubated with MTT and measurements are made to determine the extent to which incubation with test materials has altered the mitochondrial activity of the cells. A two hour exposure period is used together with a three hour recovery period during which time staining is conducted.
(§16) TCM was removed from each well and replaced with 150 Al of the appropriate buffer.
as §8
(§17) 150 μl of test solutions was added to each of wells in column 3, mixed gently by aspirating repeatedly, and 150 μl transferred to wells in column 4. This process was repeated down the plate to obtain two-fold serial dilutions of test material along each row. […]
(§18) Absorbances were measured on a plate reader as the difference between 550 and 650 nm, and readings compared with buffer controls to assess change in mitochondrial activity. […]

[5] = cited from earlier work
[6] = sodium cholate (Kojima et al); cited from earlier work
in vitro [7] = settings: human, hbss
Description: as §2, §3
as §4, with “study. […]” for “study.”
Neutral red stain is actively taken up by viable cells. Cells with more permeable membranes will lose stain into the bathing medium and thus cell membrane permeability can be directly assessed after exposure to the test material by quantifying the stain remaining in the cell. […]
In order to quantify the amount of stain remaining in the cells, absorbances were measured on a plate reader at 550 nm, and readings compared with buffer controls to assess leakage of the stain from the cells. […]

in vitro [8] = settings: human, hbss; remark: listed apart in the source
Description: as §2, §3, §4, §5, §6, §7, §8, §9, §10, §11

in vitro [9] = settings: human, hbss; remark: listed apart in the source
Description: as §3, §12, §13, §14, §15, §16, §8, §17, §18

[10] = at the pH values contemplated (7.5 to 9); cited from earlier work
[11] = In vivo efficacy study, salmon calcitonin, intrajejunal, pigs (plasma calcium); set-up: species or system Pigs (large white×large white/landrace); settings: […] iu sCT intrajejunal in 2 ml, with 25 or 50 mg sodium chenodeoxy cholate, pH 7.5 or 6.5
Description: Dosing of salmon calcitonin (sCT) was administered by instillation via the indwelling cannula into the jejunum, followed by flushing with warm sterile water. 8 ml blood samples were removed at various times before and after dosing, and divided into two portions. One portion was allowed to clot at room temperature, and the serum removed and stored at -20° C. until ready for use. The other portion was transferred to heparinised tubes to which 4000 kiu aprotinin was added, and the plasma decanted after centrifugation and stored at -20° C. Serum calcium levels were measured colorimetrically after complexation with the calcium-sensitive chelating agent arsenazo III.
Nine animals were used in the study, and formulations were administered on three separate days, each separated by at least one day, on a random three-way crossover basis, so that all pigs received all three treatments.

With `O=C(O)O` [Bicarbonate, sodium bicarbonate] as the compound, how does the pH ([1]; 0.002 M) read?
Its pH is 8.86.

And the pH ([1]; 0.004 M)?
The pH was 8.67.

And the pH ([1]; 0.008 M)?
The pH was 8.63.

What about the pH ([1]; 0.016 M) of the same compound?
Its pH is 8.57.

And the pH ([1]; 0.031 M)?
Its pH is 8.55.

And the pH ([1]; 0.062 M)?
Its pH is 8.49.

And the “pH of 0.1M solution” value ([1]; 0.1M, confirmed at the end of each of the experiments)?
Its value is ~8.0.

What about the pH ([1]; 0.500 M) of the same compound?
Its pH is 8.16.

What about the pH ([1]; 1.000 M) of the same compound?
Its pH is 8.02.

And the “pH of saturated solution” value ([1]; saturated (<2M) in water)?
Its value is 8.01.

What about the pH ([2]; 0.002 M) of the same compound?
The pH was 6.42.

And the pH ([2]; 0.004 M)?
The pH was 6.58.

What about the pH ([2]; 0.008 M) of the same compound?
The pH was 6.86.

What about the pH ([2]; 0.016 M) of the same compound?
The pH was 7.14.

What about the pH ([2]; 0.031 M) of the same compound?
Its pH is 7.40.

What about the pH ([2]; 0.062 M) of the same compound?
Its pH is 7.68.

What about the pH ([2]; 0.500 M) of the same compound?
Its pH is 8.05.

What about the pH ([2]; 1.000 M) of the same compound?
Its pH is 7.96.

And the “pH in the gut” value ([2]; about 0.045M (about 40 mg sodium bicarbonate in 10 ml))?
Its value is “about 7.5”.

For `C[C@H](CCC(=O)O)[C@H]1CC[C@H]2[C@@H]3[C@H](O)C[C@@H]4C[C@H](O)CC[C@]4(C)[C@H]3CC[C@]12C` [Chenodeoxycholate, sodium chenodeoxycholate], which “percentage release of stain (FIG. 4)” value (Caco-2 cells [3]) is on record?
Its value is “much less stain is released from cells which have been incubated at pH above 7.5”.

And the “percentage reduction in mitochondrial activity (FIG. 5)” value (Caco-2 cells [4])?
The value was “a marked reduction in toxicity is achieved under conditions of elevated pH”.

With `C[C@H](CCC(=O)O)[C@H]1CC[C@H]2[C@@H]3[C@H](O)C[C@@H]4C[C@H](O)CC[C@]4(C)[C@H]3C[C@H](O)[C@]12C` [Cholate, sodium cholate] as the compound, how does the “absorption of various substances” value ([5]; sodium cholate (Kojima et al)) read?
Its value is “capable of increasing the absorption of various substances”.

What about the “release of cell membrane components” value [6] of the same compound?
Its value is “accelerated”.

Which “bioavailability of various substances” value ([5]; in combination with taurocholate or glycocholate (Kakemi et al)) does the source give for `C[C@H](CCC(=O)NCC(=O)O)[C@H]1CC[C@H]2[C@@H]3[C@H](O)C[C@@H]4C[C@H](O)CC[C@]4(C)[C@H]3C[C@H](O)[C@]12C` [Glycocholate, sodium glycocholate] here?
Its value is “could be increased”.

Which results are given for `C[C@H](CCC(=O)NCC(=O)O)[C@H]1CC[C@H]2[C@@H]3CC[C@@H]4C[C@H](O)CC[C@]4(C)[C@H]3C[C@H](O)[C@]12C` [Glycodeoxycholate, sodium glycodeoxycholate]?
MNTC at 2 h (in vitro [7]): 313 µg/mL; MNTC at 2 h (in vitro [8]): 313 µg/mL; MNTC at 2 h (in vitro [9]): 313 µg/mL

With `C[C@H](CCC(=O)NCCS(=O)(=O)O)[C@H]1CC[C@H]2[C@@H]3CC[C@@H]4C[C@H](O)CC[C@]4(C)[C@H]3C[C@H](O)[C@]12C` [Taurodeoxycholate, sodium taurodeoxycholate] as the compound, how does the MNTC at 2 h (in vitro [7]) read?
The MNTC at 2 h was 313 µg/mL.

And the MNTC at 2 h (in vitro [8])?
The MNTC at 2 h was 313 µg/mL.

And the MNTC at 2 h (in vitro [9])?
Its MNTC at 2 h is 313 µg/mL.

For insulin, which solubility [10] is on record?
Its solubility is “poorly soluble”.

With salmon calcitonin [sCT] as the compound, how does the “efficacy of bile salts in enhancing uptake of calcitonin (plasma calcium concentration with time, FIG. 6)” value [11] read?
Its value is “dependent on the concentration of bile salt present, and the pH at which it is administered”.

For somatostatin, which bioavailability of somatostatin ([5]; with a cholanic acid derivative such as chenodeoxycholic acid or ursodeoxycholic acid (GB-A-2244918)) is on record?
The bioavailability of somatostatin was “can be improved”.
